Here are results for five compounds from ChEMBL document CHEMBL4190251, “Design and synthesis of conformationally constrained salinomycin derivatives” (Eur J Med Chem, 2017).

For assay [1], the system named is HT-29. As to the kind of experiment: Antiproliferative activity against human HT-29 cells at 10 uM after 48 hrs by MTT assay relative to control. Format: functional.
Assay [2] deals with HT-29. Kind of assay: Antiproliferative activity against human HT-29 cells after 48 hrs by MTT assay. The note with it: HT-29, 48 h. It is filed as functional, cell-based.

Where only a bound is given, the exact number is not on record here.

Compound `C=CCCC(=O)O[C@@H]1CC[C@]2(O[C@H]([C@@H](CC)C(=O)[C@@H](C)[C@@H](O)[C@H](C)[C@@H]3O[C@@H]([C@@H](CC)C(=O)OCC=C)CC[C@@H]3C)[C@@H](C)C[C@H]2C)O[C@@]12CC[C@@](C)([C@H]1CC[C@](O)(CC)[C@H](C)O1)O2` displayed an Activity in the assay on HT-29 [1] below 10%.
`CC[C@H]1C(=O)[C@@H](C)[C@@H](O)[C@H](C)[C@@H]2O[C@H](CC[C@@H]2C)[C@@H](CC)C(=O)OC/C=C/CCC(=O)O[C@@H]2CC[C@]3(O[C@H]1[C@@H](C)C[C@H]3C)O[C@@]21CC[C@@](C)([C@H]2CC[C@](O)(CC)[C@H](C)O2)O1` gave an IC50 with HT-29 [2] of 7.64 µM. In the assay on HT-29 [1], this compound yielded an Activity of 67%.
The compound `C=CCOC(=O)[C@H](CC)[C@H]1CC[C@H](C)[C@H]([C@@H](C)[C@H](O)[C@H](C)C(=O)[C@H](CC)[C@H]2O[C@]3(CC[C@@H](OC(=O)C=C)[C@]4(CC[C@@](C)([C@H]5CC[C@](O)(CC)[C@H](C)O5)O4)O3)[C@H](C)C[C@@H]2C)O1` displayed an Activity in the assay with HT-29 [1] below 10%.
In the assay with HT-29 [2], `CC[C@H]1C(=O)[C@@H](C)[C@@H](O)[C@H](C)[C@@H]2O[C@H](CC[C@@H]2C)[C@@H](CC)C(=O)OC/C=C/C(=O)O[C@@H]2CC[C@]3(O[C@H]1[C@@H](C)C[C@H]3C)O[C@@]21CC[C@@](C)([C@H]2CC[C@](O)(CC)[C@H](C)O2)O1` had an IC50 above 10 µM. Besides, the Activity in the assay on HT-29 [1] is reported as 13.6%.
`CC[C@@H](C(=O)[C@@H](C)[C@@H](O)[C@H](C)[C@@H]1O[C@@H]([C@@H](CC)C(=O)O)CC[C@@H]1C)[C@H]1O[C@]2(C=C[C@@H](O)[C@]3(CC[C@@](C)([C@H]4CC[C@](O)(CC)[C@H](C)O4)O3)O2)[C@H](C)C[C@@H]1C` [SALINOMYCIN]: in the assay with HT-29 [1], the Activity is given as 76.1%.
